Test results: patent US9346798B2, “Dihydrobenzoxazine and tetrahydroquinoxaline sodium channel inhibitors” (AMGEN INC., priority 2012, dated 2016)

Experiments:
Type in all cases: cell-based
[1] = molecular target: T1, Nav 1.7 (Homo sapiens (Human), UniProt Q15858); assay: Nav 1.7 in vitro assay, IonWorks Quattro (IWQ) population patch-clamp; details: HEK 293 cells stably transfected with Nav 1.7; 26th pulse to -20 mV
[2] = molecular target: T1, Nav 1.7; assay: Nav 1.7 in vitro PX assay, PatchXpress whole cell voltage clamp; details: HEK 293 cells stably transfected with human Nav1.7; partially inactivated state (20 to 50% inactivation)
In short: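 HEK293 cells stably expressing human Nav1.7, whole-cell voltage clamp at a holding potential giving 20–50% inactivation; currents elicited by 20 msec pulses to −10 mV at 0.1 Hz.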

[3] = molecular target: Nav 1.5 (Homo sapiens (Human), UniProt Q14524); assay: Nav 1.5 in vitro assay, IonWorks Quattro (IWQ) population patch-clamp; details: HEK 293 cells stably transfected with Nav 1.5; 26th pulse to -20 mV
Sequence of Nav 1.5 (Q14524 whole entry): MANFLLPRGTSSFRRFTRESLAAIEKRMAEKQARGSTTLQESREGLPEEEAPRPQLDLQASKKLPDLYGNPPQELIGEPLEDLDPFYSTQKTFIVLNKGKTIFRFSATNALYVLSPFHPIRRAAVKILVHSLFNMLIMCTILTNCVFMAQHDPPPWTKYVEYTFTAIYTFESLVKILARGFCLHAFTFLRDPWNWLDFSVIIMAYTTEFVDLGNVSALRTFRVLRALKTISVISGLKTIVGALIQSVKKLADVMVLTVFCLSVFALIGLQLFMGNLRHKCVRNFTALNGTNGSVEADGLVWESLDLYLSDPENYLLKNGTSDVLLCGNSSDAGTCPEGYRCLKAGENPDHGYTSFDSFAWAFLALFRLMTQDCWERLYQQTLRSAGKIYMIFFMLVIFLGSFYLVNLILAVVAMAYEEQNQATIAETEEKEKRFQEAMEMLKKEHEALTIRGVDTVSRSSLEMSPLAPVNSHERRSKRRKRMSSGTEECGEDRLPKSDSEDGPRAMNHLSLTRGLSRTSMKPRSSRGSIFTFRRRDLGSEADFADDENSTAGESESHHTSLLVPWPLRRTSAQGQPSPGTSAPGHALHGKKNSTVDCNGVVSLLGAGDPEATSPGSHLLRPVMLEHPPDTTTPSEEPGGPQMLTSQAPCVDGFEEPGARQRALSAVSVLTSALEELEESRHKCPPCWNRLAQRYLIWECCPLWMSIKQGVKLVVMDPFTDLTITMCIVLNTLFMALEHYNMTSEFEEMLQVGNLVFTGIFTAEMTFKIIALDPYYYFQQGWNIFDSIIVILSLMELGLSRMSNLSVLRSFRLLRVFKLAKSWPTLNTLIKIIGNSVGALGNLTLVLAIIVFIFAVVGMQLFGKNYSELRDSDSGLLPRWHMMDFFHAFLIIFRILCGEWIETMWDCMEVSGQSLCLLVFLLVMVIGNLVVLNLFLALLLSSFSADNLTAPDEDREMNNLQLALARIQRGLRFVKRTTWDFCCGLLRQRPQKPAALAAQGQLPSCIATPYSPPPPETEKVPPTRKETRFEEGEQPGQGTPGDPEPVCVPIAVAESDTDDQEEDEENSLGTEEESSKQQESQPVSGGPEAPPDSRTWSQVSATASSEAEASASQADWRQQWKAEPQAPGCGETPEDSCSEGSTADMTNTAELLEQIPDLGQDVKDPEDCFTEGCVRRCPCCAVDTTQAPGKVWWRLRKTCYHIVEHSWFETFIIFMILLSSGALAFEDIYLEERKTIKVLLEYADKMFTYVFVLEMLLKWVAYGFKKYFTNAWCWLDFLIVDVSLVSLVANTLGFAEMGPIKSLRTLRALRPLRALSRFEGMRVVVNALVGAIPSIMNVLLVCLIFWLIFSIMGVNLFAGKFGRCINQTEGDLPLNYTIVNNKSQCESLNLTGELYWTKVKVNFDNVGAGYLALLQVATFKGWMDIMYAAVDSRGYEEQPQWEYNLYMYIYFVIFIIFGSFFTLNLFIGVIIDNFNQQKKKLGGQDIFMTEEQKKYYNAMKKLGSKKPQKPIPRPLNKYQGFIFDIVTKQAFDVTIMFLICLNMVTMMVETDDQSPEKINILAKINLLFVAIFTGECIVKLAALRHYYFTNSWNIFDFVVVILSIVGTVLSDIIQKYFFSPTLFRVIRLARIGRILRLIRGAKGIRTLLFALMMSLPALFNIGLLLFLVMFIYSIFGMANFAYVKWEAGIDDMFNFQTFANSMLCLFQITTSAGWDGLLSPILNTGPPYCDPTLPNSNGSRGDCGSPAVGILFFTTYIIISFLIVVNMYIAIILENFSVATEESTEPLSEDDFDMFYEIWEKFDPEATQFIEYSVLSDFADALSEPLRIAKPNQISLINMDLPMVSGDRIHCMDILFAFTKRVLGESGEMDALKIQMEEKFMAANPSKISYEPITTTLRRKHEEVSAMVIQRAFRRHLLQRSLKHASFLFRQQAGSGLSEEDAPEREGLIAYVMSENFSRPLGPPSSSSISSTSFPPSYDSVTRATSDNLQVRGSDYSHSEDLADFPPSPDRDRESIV

T1 sequence (Q15858 whole entry): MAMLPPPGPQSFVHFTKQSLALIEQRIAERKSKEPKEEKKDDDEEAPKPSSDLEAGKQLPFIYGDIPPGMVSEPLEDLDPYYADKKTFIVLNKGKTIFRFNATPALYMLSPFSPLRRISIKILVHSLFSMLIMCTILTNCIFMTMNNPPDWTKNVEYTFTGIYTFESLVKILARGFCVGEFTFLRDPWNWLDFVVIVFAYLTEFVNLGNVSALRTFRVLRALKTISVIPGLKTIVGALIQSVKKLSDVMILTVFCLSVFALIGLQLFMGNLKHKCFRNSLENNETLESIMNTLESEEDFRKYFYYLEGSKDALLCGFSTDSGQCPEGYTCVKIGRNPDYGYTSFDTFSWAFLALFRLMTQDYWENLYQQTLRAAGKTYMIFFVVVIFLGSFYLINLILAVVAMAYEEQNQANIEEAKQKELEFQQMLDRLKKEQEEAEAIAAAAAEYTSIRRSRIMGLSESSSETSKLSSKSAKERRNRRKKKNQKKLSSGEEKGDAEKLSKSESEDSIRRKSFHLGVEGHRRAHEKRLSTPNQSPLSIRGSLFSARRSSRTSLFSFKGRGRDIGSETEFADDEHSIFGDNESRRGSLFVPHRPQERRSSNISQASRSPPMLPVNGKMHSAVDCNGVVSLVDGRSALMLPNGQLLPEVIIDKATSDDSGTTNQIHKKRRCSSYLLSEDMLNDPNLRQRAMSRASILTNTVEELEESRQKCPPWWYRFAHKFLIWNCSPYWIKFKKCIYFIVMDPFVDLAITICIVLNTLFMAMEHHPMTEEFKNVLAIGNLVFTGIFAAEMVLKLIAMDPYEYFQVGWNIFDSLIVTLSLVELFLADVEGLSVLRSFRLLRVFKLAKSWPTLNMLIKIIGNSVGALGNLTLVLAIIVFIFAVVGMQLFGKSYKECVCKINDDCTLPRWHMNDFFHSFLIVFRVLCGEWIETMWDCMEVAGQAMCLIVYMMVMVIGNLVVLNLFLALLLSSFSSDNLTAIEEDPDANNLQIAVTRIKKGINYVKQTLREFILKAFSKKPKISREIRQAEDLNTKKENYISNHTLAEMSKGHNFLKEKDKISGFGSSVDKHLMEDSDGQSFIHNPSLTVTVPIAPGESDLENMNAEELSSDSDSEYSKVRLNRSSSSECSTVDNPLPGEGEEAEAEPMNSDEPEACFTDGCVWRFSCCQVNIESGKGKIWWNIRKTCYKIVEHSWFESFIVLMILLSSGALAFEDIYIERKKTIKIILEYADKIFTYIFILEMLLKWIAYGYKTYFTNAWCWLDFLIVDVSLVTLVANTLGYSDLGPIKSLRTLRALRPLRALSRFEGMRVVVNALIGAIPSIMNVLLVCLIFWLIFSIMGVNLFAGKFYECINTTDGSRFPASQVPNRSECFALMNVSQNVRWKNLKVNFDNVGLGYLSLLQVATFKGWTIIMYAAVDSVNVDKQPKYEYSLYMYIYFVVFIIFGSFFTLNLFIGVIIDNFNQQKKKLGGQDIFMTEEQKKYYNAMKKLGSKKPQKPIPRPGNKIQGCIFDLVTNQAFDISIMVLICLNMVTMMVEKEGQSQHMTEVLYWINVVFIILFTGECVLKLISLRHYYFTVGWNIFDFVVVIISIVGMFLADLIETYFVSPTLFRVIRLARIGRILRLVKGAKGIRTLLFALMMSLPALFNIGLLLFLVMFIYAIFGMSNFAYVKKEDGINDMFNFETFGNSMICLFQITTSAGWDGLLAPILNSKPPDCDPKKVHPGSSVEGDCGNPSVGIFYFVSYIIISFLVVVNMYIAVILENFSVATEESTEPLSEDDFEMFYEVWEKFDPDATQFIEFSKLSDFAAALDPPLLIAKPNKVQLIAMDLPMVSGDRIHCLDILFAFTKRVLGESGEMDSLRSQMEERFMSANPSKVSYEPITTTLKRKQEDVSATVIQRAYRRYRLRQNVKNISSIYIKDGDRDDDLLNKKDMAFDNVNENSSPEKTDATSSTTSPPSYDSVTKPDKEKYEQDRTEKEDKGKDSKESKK

## N#Cc1ccc(C(F)(F)F)cc1N1CCOc2cc(S(=O)(=O)Nc3nccs3)ccc21 [Example 184, 4-(2-Cyano-5-(Trifluoromethyl)Phenyl)-N-(Thiazol-2-Yl)-3,4-Dihydro-2H-Benzo[B][1,4]Oxazine-7-Sulfonamide]
[1]
  IC50: 186 nM
[2]
  IC50: 392 nM
[3]
  IC50: 3170 nM

## O=S(=O)(Nc1nccs1)c1ccc2c(c1)OCCN2c1cccc(OC(F)(F)F)c1 [Example 185, N-(Thiazol-2-Yl)-4-(3-(Trifluoromethoxy)Phenyl)-3,4-Dihydro-2H-Benzo[B][1,4]Oxazine-7-Sulfonamide]
[1]
  IC50: 335 nM
[2]
  IC50: 2620 nM
[3]
  IC50: 7620 nM

## COc1cc(Cl)ccc1N1CCOc2cc(S(=O)(=O)Nc3nccs3)ccc21 [Example 186, 4-(4-Chloro-2-Methoxyphenyl)-N-(Thiazol-2-Yl)-3,4-Dihydro-2H-Benzo[B][1,4]Oxazine-7-Sulfonamide]
[1]
  IC50: 11.5 nM
[2]
  IC50: 67.6 nM
[3]
  IC50: 7720 nM

## N#Cc1c(F)cccc1N1CCOc2cc(S(=O)(=O)Nc3nccs3)ccc21 [Example 187, 4-(2-Cyano-3-Fluorophenyl)-N-(Thiazol-2-Yl)-3,4-Dihydro-2H-Benzo[B][1,4]Oxazine-7-Sulfonamide]
[1]
  IC50: 417 nM
[2]
  IC50: 7730 nM
[3]
  IC50: > 10000 nM

## COc1ccc(C#N)c(N2CCOc3cc(S(=O)(=O)Nc4nccs4)ccc32)c1 [Example 189, 4-(2-Cyano-5-Methoxyphenyl)-N-(Thiazol-2-Yl)-3,4-Dihydro-2H-Benzo[B][1,4]Oxazine-7-Sulfonamide]
[1]
  IC50: 385 nM
[2]
  IC50: 3100 nM
[3]
  IC50: 7590 nM

## COc1ccncc1N1CCOc2cc(S(=O)(=O)Nc3nccs3)ccc21 [Example 190, 4-(4-Methoxypyridin-3-Yl)-N-(Thiazol-2-Yl)-3,4-Dihydro-2H-Benzo[B][1,4]Oxazine-7-Sulfonamide]
[1]
  IC50: 309 nM
[2]
  IC50: 5170 nM
[3]
  IC50: > 10000 nM

## N#Cc1ccc(N2CCOc3cc(S(=O)(=O)Nc4nccs4)ccc32)c(Cl)c1 [Example 191, 4-(2-Chloro-4-Cyanophenyl)-N-(Thiazol-2-Yl)-3,4-Dihydro-2H-Benzo[B][1,4]Oxazine-7-Sulfonamide]
[1]
  IC50: 140 nM
[2]
  IC50: 976 nM
[3]
  IC50: > 10000 nM

## N#Cc1ccc(Cl)cc1N1CCOc2cc(S(=O)(=O)Nc3nccs3)ccc21 [Example 192, 4-(5-Chloro-2-Cyanophenyl)-N-(Thiazol-2-Yl)-3,4-Dihydro-2H-Benzo[B][1,4]Oxazine-7-Sulfonamide]
[1]
  IC50: 52.5 nM
[2]
  IC50: 769 nM
[3]
  IC50: 1610 nM

## O=S(=O)(Nc1nccs1)c1ccc2c(c1)OCCN2c1ccc(Cl)cc1OC(F)F [Example 193, 4-(4-Chloro-2-(Difluoromethoxy)Phenyl)-N-(Thiazol-2-Yl)-3,4-Dihydro-2H-Benzo[B][1,4]Oxazine-7-Sulfonamide 2,2,2-Trifluoroacetate]
[1]
  IC50: 103 nM
[2]
  IC50: 684 nM
[3]
  IC50: 1560 nM

## Cc1ccc(C#N)c(N2CCOc3cc(S(=O)(=O)Nc4nccs4)ccc32)c1 [Example 194, 4-(2-Cyano-5-Methylphenyl)-N-(Thiazol-2-Yl)-3,4-Dihydro-2H-Benzo[B][1,4]Oxazine-7-Sulfonamide]
[1]
  IC50: 163 nM
[2]
  IC50: 1370 nM
[3]
  IC50: 3590 nM

## Cc1cc(Cl)ccc1N1CCOc2cc(S(=O)(=O)Nc3nccs3)ccc21 [Example 195, 4-(4-Chloro-2-Methylphenyl)-N-(Thiazol-2-Yl)-3,4-Dihydro-2H-Benzo[B][1,4]Oxazine-7-Sulfonamide]
[1]
  IC50: 233 nM
[2]
  IC50: 1100 nM
[3]
  IC50: > 10000 nM

## Cc1cc(C(F)(F)F)ccc1N1CCOc2cc(S(=O)(=O)Nc3nccs3)ccc21 [Example 196, 4-(2-Methyl-4-(Trifluoromethyl)Phenyl)-N-(Thiazol-2-Yl)-3,4-Dihydro-2H-Benzo[B][1,4]Oxazine-7-Sulfonamide]
[1]
  IC50: 396 nM
[2]
  IC50: 898 nM
[3]
  IC50: 5700 nM
